Data set [1] has as its system human Jurkat leukemia cells. Briefly: Cell accumulation (uptake) of Tc-99m-Tat-peptide complexes in Jurkat cells. Format: cell-based. Conditions: for Jurkat Cell Uptake: Table 2, radiolabeled (99mTc) peptides, net cell uptake; for effect of inhibitor on net cell uptake of the Tat-peptide metal complex: colchicine 100 ng/ml, taxol 1 μM, nocodozole 5 μg/ml, cytochalasin D 1 μM, brefeldin A 2.5 μg/ml, wortmannin 100 nM; for 20 min Uptake: [99mTc] complexes, 37° C.; for U/W Ratio: uptake/washout ratio. The protocol:
Control solution for cell uptake experiments was a modified Earle's balanced salt solution (MEBSS) containing (mM): 145 Na^+, 5.4 K^+, 1.2 Ca^2+, 0.8 Mg^2+, 152 Cl^−, 0.8 H2PO4^−, 0.8 SO4^2−, 5.6 dextrose, 4.0 HEPES, and 1% bovine calf serum (vol/vol), pH 7.4±0.05. A 130 mM K^+/20 mM Cl^− solution was made by equimolar substitution of potassium methanesulfonate for NaCl as described by Piwnica-Worms et al. (J. Gen. Physiol., 81:731-748, 1983).
(§1) Characterization of accumulation of Tc-99m-peptide complex was also performed for nonadherent cell lines such as human Jurkat leukemia cells with minor modifications of methods described in the literature (Bosch et al., Leukemia, 11: 1131-1137, 1997). Transport experiments were performed in siliconized microfuge tubes and initiated by addition of 732.5 μl of cells at 2-3×10^6 cells/ml to 10 μl of buffer containing Tc-99m-peptide complex and 7.5 μl of vehicle alone or of any added drug in vehicle at 100-fold the desired concentration. The tubes were incubated in a 37° C. water bath with occasional mixing. The reaction was terminated by centrifuging 250 μl aliquots from the reaction for 10 seconds through 800 μl of a 75:25 mixture of silicon oil, density=1.050 (Aldrich) and mineral oil, density=0.875 (Acros). An aliquot of the aqueous phase was obtained to normalize extracellular concentration of the complex to cell-associated activity, then the oil and aqueous phases were aspirated and the cell pellet extracted in 0.5 ml of 1% SDS, 10 mM sodium borate. For tracer washout experiments, cells were first incubated to plateau uptake (10 min) in loading buffer (37° C.), collected by rapid centrifugation and the pellet resuspended in 50 ml MEBSS (4° C.) to clear extracellular tracer. Following another rapid spin, the cell pellet was resuspended in isotope-free MEBSS (37° C.) and the experiment terminated as above after various times in warm washout buffer. Radioactivity of the cell pellet, buffers and stocks were determined on a gamma counter (Cobra II, 130-165 keV window) and cell protein was determined by the BCA assay (Pierce). Transport data are reported as fmol Tc-complex (mg protein)^−1 (nM0)^− as previously described, with (nM0)^−1 representing total concentration of peptide conjugate in the extracellular buffer (Piwnica-Worms et al., Circulation, 82: 1826-1838, 1990).
Kinetic experiments of [^99mTc]D-Tat-peptide complexes were performed in Jurkat leukemia cells suspended in MEBSS with minor modification of the methods described in Example 6. Transport experiments were performed in siliconized microfuge tubes and initiated by addition of 732.5 μl of cells at 2-3×10^6 cells/ml to 10 μl of MEBSS containing [^99mTc]D-Tat-peptide complex and 7.5 μl of vehicle alone or of any added drug in vehicle at 100 fold the desired concentration. Unless stated otherwise, [^99mTc]D-Tat-peptide complex was added to MEBSS accompanied by a molar excess of unlabeled D-Tat-peptide as obtained directly from the labeling procedure. The final total peptide concentration was 7 nM to 8 μM (1-2 μCi/ml). The tube were incubated at 37° C. and the reaction terminated as previously described. For peptide washout experiments, cells were first incubated to plateau uptake (20 minutes) in MEBSS loading buffer at 37° C., collected by rapid centrifugation and the pellet resuspended in 50 ml of isotope-free MEBSS at 4° C. to clear extracellular tracer. Following another rapid spin, the cell pellet was resuspended in isotope-free MEBSS at 37° C. for various times and the reaction terminated as described previously. Protein assays and determination of gamma activity were as described in Example 6. Absolute concentration of total [Tc]Tat-peptide complex in solution was determined from the specific activity of Tc, based on equations of Mo/Tc generator equilibrium (Lamson et al., J. Nucl. Med., 16:639-641, 1975). […]

In data set [2] the test system is human Jurkat leukemia cells. Briefly: Washout of Tc-99m-Tat-peptide complexes from preloaded Jurkat cells. Format: cell-based. Particulars: for 30 min Washout: residual activity remaining within the cell 30 minutes after a wash in isotope-free buffer. The protocol: as §1
Kinetic experiments of [^99mTc]D-Tat-peptide complexes were performed in Jurkat leukemia cells suspended in MEBSS with minor modification of the methods described in Example 6. Transport experiments were performed in siliconized microfuge tubes and initiated by addition of 732.5 μl of cells at 2-3×10^6 cells/ml to 10 μl of MEBSS containing [^99mTc]D-Tat-peptide complex and 7.5 μl of vehicle alone or of any added drug in vehicle at 100 fold the desired concentration. Unless stated otherwise, [^99mTc]D-Tat-peptide complex was added to MEBSS accompanied by a molar excess of unlabeled D-Tat-peptide as obtained directly from the labeling procedure. The final total peptide concentration was 7 nM to 8 μM (1-2 μCi/ml). The tube were incubated at 37° C. and the reaction terminated as previously described. For peptide washout experiments, cells were first incubated to plateau uptake (20 minutes) in MEBSS loading buffer at 37° C., collected by rapid centrifugation and the pellet resuspended in 50 ml of isotope-free MEBSS at 4° C. to clear extracellular tracer. Following another rapid spin, the cell pellet was resuspended in isotope-free MEBSS at 37° C. for various times and the reaction terminated as described previously. Protein assays and determination of gamma activity were as described in Example 6. Absolute concentration of total [Tc]Tat-peptide complex in solution was determined from the specific activity of Tc, based on equations of Mo/Tc generator equilibrium (Lamson et al., J. Nucl. Med., 16:639-641, 1975). Transport data are reported as pmol of peptidei (mg protein)^−1 (μM0)^−1, wherein peptidei represents total peptide conjugate within the cells and (nM0)^−1 represents concentration of total peptide conjugate in the extracellular buffer.

Numbered stars: 1 amine (or outer) side, 2 acyl side, 3 side chain; on linkers, the order of the positions; unused ones are H or OH. Square brackets hold non-standard residues; d marks the D form. Ends that are not written are not given here. εLys = N[C@@H](CCCCN[*:1])C(=O)[*:2]; D‑k∗gc = not defined here; K∗GC = not defined here; Ahx = NCCCCCC(=O)O

For the molecule “1a (GRKKRRQRRR; acetyl; AHA-K*GC chelator, amide) [Conjugate 1a]”, the “Jurkat Cell Uptake” value in data set [1] (Jurkat cells) was 92.90 ± 21.17 pmol (mg protein)^−1 (μM0)^−1.

As to “2b (GRKKRRQRRR; acetyl; AHA-D-k*gc chelator, amide) [Conjugate 2b]”, the “Jurkat Cell Uptake” value in data set [1] (Jurkat cells) is reported as 50.39 ± 25.73 pmol (mg protein)^−1 (μM0)^−1.

Consider “4d (Ac-RKKRRQRRR-{Ahx-K∗GC-NH2}; reading uncertain) [Conjugate 4d]”, for which, in data set [1] (Jurkat cells), the “Jurkat Cell Uptake” value is recorded as 90.75 ± 41.04 pmol (mg protein)^−1 (μM0)^−1.

Regarding “5e (Ac-RKKRRQRRR-{Ahx-D‑k∗gc-NH2}; reading uncertain) [Conjugate 5e]”, the “Jurkat Cell Uptake” value in data set [1] (Jurkat cells) was 48.81 ± 2.91 pmol (mg protein)^−1 (μM0)^−1.

Take “8h (RKKRRQRRR-{Ahx-D‑k∗gc-NH2}; reading uncertain) [Conjugate 8h]”: in data set [1] (Jurkat cells), the “Jurkat Cell Uptake” value is given as 64.35 ± 1.63 pmol (mg protein)^−1 (μM0)^−1.

On to “10j (GRKKRRQRRR; AHA linker, D-k*gc chelator, amide) [Conjugate 10j]”, for which the “Jurkat Cell Uptake” value in data set [1] (Jurkat cells) is 106.96 ± 1.55 pmol (mg protein)^−1 (μM0)^−1.

On to “12l (RKKRRQRRR; not fully specified; biotin; AHA-K*GC chelator, amide) [Conjugate 12l]”, for which the “Jurkat Cell Uptake” value in data set [1] (Jurkat cells) is listed as 51.07 ± 11.78 pmol (mg protein)^−1 (μM0)^−1.

In the case of “28 (Ac-RRRRRRR-{Ahx-D‑k∗gc-NH2}; reading uncertain) [Conjugate 28]”, in data set [1] (Jurkat cells), the “Jurkat Cell Uptake” value was 34.73 ± 6.99 pmol (mg protein)^−1 (μM0)^−1.

For the molecule “30 (Ac-RRRRRRRR-{Ahx-D‑k∗gc-NH2}; reading uncertain) [Conjugate 30]”, in data set [1] (Jurkat cells), the “Jurkat Cell Uptake” value is 59.02 ± 5.52 pmol (mg protein)^−1 (μM0)^−1.

Consider “32 (Ac-RRRRRRRRR-{Ahx-D‑k∗gc-NH2}; reading uncertain) [Conjugate 32]”, for which the “Jurkat Cell Uptake” value in data set [1] (Jurkat cells) is 129.11 ± 69.01 pmol (mg protein)^−1 (μM0)^−1.

As for `COc1cc2c(c(OC)c1OC)-c1ccc(OC)c(=O)cc1[C@@H](NC(C)=O)CC2` [Colchicine, reference compound], in data set [1] (Jurkat cells, data not shown), the “effect of inhibitor on net cell uptake of the Tat-peptide metal complex” value (shortened to “effect of inhibitor”) is on record as “no significant effect”.

As for `C[C@H]1CCC/C=C/[C@@H]2C[C@H](O)C[C@H]2[C@H](O)/C=C/C(=O)O1` [brefeldin A, reference compound], in data set [1] (Jurkat cells, data not shown), the “effect of inhibitor” value is “no significant effect”.

As to `C=C1[C@@H](C)[C@H]2[C@H](Cc3ccccc3)NC(=O)[C@]23[C@H](OC(C)=O)/C=C/[C@@](C)(O)C(=O)[C@@H](C)C/C=C/[C@H]3[C@@H]1O` [cytochalasin D, reference compound], the “effect of inhibitor” value in data set [1] (Jurkat cells, data not shown) is “no significant effect”.

With `COC(=O)Nc1nc2ccc(C(=O)c3cccs3)cc2n1C` [nocodozole, reference compound], the “effect of inhibitor” value in data set [1] (Jurkat cells, data not shown) is reported as “no significant effect”.

As for `CC(=O)O[C@H]1C(=O)[C@@]2(C)[C@H]([C@H](OC(=O)c3ccccc3)[C@]3(O)C[C@H](OC(=O)[C@H](O)[C@@H](NC(=O)c4ccccc4)c4ccccc4)C(C)=C1C3(C)C)[C@]1(OC(C)=O)CO[C@@H]1C[C@@H]2O` [taxol, reference compound], the “effect of inhibitor” value in data set [1] (Jurkat cells, data not shown) is recorded as “no significant effect”.

Turning to `COC[C@H]1OC(=O)c2coc3c2[C@@]1(C)C1=C(C3=O)[C@@H]2CCC(=O)[C@@]2(C)C[C@H]1OC(C)=O` [wortmannin, reference compound], the “effect of inhibitor” value in data set [1] (Jurkat cells, data not shown) is listed as “no significant effect”.

Consider “Acetyl- GRKKRRQRRR-AHA- εKGC-amide [Conjugate 1]”, for which, in data set [1] (Jurkat cells), the “20 min Uptake” value is 77.93 pmol (mg protein)^−1 (μM0)^−1 and the “U/W Ratio” value came out at 3.2. The “30 min Washout” value in data set [2] was 24.26 pmol (mg protein)^−1 (μM0)^−1.

As to “acetyl-GRKKRRORRR-AHA-εKGC-amide(Tc^v-99m) trifluoroacetate [Example 2]”, the “net uptake under isoelectric conditions compared to control buffer” value in data set [1] (130 mM K+/20 mM Cl− and 1 μg/ml valinomycin, data not shown) is “not decreased”. For the same molecule, the “net accumulation in ice-cold buffer” value in data set [1] (4° C., Jurkat cells) is listed as “only modestly inhibited”. Besides, in data set [1] (Jurkat cells), the “time to approach plateau accumulation” value is not above 2 min, the “20 min Uptake” value was 61.73 pmol (mg protein)^−1 (μM0)^−1 and the “U/W Ratio” value was determined as 5.6. Further, the “time plateau (quasi-steady state) was maintained” value in data set [1] (Jurkat cells continuously exposed to the complex) was “at least 1 hour”. Besides, in data set [1] (Jurkat cells, n=4), the “Steady-state value of accumulation” value is on record as 116±3 fmol (mg protein)^−1 (nM0)^−1. In data set [1] (given a typical cell water space of 4 μl (mg protein)^−1), the in/out ratio is given as approximately 30. Also, the “extracellular concentration of half-maximal accumulation” value in data set [1] (plateau accumulation after 10 minutes, 7 nM to 8 μM, curve fitting) was approximately 3 µM. The same molecule showed a cell accumulation complete in data set [1] (within 2 minutes, extracellular concentration of peptide 950 nM, Jurkat cells) of 90%. The “30 min Washout” value in data set [2] was 10.99 pmol (mg protein)^−1 (μM0)^−1. The “residual level of peptide remaining in cells” value in data set [2] (slowly exchanging or retaining compartment after washout) is on record as < 10 % of peak activity. In data set [2] (within 20 minutes, preloaded Jurkat cells), the washout complete is given as approximately 90%.

For “acetyl-GRKKRRQRRR-GDEVDG-εKGC-amide (Ac-GRKKRRQRRRGDEVDG[εLys]GC-NH2; SMILES CC(=O)NCC(=O)N[C@@H](CCCNC(=N)N)C(=O)N[C@@H](CCCCN)C(=O)N[C@@H](CCCCN)C(=O)N[C@@H](CCCNC(=N)N)C(=O)N[C@@H](CCCNC(=N)N)C(=O)N[C@@H](CCC(N)=O)C(=O)N[C@@H](CCCNC(=N)N)C(=O)N[C@@H](CCCNC(=N)N)C(=O)N[C@@H](CCCNC(=N)N)C(=O)NCC(=O)N[C@@H](CC(=O)O)C(=O)N[C@@H](CCC(=O)O)C(=O)N[C@H](C(=O)N[C@@H](CC(=O)O)C(=O)NCC(=O)NCCCC[C@H](N)C(=O)NCC(=O)N[C@@H](CS)C(N)=O)C(C)C) [Example 8]”, in data set [1] (Jurkat cells), the “20 min Uptake” value is recorded as 317.92 pmol (mg protein)^−1 (μM0)^−1 and the “U/W Ratio” value is listed as 6.2. The “30 min Washout” value in data set [2] is reported as 50.87 pmol (mg protein)^−1 (μM0)^−1.

The values are drawn from US8038984B2, “Membrane-permeant peptide complexes for treatment of sepsis” (Washington University, priority 1998, dated 2011).
